Reference: patent publication US12472272B2, “Radiolabelled compounds for diagnosis or treatment of prostate-specific membrane antigen- expressing cancer” (PROVINCIAL HEALTH SERVICES AUTHORITY, priority 2019, dated 2025)
“Also recorded” adds a separate entry of the source.

Tested on: PSMA-expressing cancer xenografts (LNCaP)
Experiment: Biodistribution of ^177Lu-labeled HTK03041
Format: in vivo, mice
Details: for Tissue (% ID/g): Muscle / Tissue (% ID/g): Pancreas / Tissue (% ID/g): Salivary / Tissue (% ID/g): Seminal / Tissue (% ID/g): Spleen / Tissue (% ID/g): Stomach / Tissue (% ID/g): Tail / Tissue (% ID/g): Testes / Tissue (% ID/g): Thyroid / Tissue (% ID/g): Tumor / Tissue (% ID/g): Urine / tumor-to-background contrast ratio Tumor: Blood / tumor-to-background contrast ratio Tumor: Muscle / tumor-to-background contrast ratio Tumor: kidney / Tissue (% ID/g): Adrenal glands / Tissue (% ID/g): Blood / Tissue (% ID/g): Bone / Tissue (% ID/g): Brain / Tissue (% ID/g): Fat / Tissue (% ID/g): Heart / Tissue (% ID/g): Intestine / Tissue (% ID/g): Kidneys / Tissue (% ID/g): Lacrimal / Tissue (% ID/g): Liver / Tissue (% ID/g): Lungs: ^177Lu
Procedure: Imaging and biodistribution experiments were performed using NODSCID 1L2RγKO male mice. Mice were anesthetized by inhalation with 2% isoflurane in oxygen, and implanted subcutaneously with 1×10^7 LNCaP cells behind left shoulder. Mice were imaged or used in biodistribution studies when the tumor grew up to reach 5-8 mm in diameter during 5-6 weeks.
SPECT/CT imaging experiments were conducted using the MlLabs (Utrecht, the Netherlands) U-SPECT-II/CT scanner. Each tumor bearing mouse was injected with ˜37 MBq of ^177Lu-labeled HTK03041 through the tail vein under anesthesia (2% isoflurane in oxygen). The mice were allowed to recover and roam freely in their cage and imaged at 1, 4, 24, 72 and 120 hours after injection. At each time point, the mice were sedated again and positioned in the scanner. A 5-min CT scan was conducted first for anatomical reference with a voltage setting at 60 kV and current at 615 μA followed by a 60-min static emission scan acquired in list mode using an ultra-high resolution multi-pinhole rat-mouse (1 mm pinhole size) collimator. Data were reconstructed using the U-SPECT II software with a 20% window width on three energy windows. The photopeak window was centered at 208 keV, with lower scatter and upper scatter windows centered at 170 and 255 keV, respectively. Reconstruction parameters used maximum-likelihood expectation maximization (3 iterations), pixel-based ordered subset expectation maximization (16 subsets), and a post-processing filter (Gaussian blurring) of 0.5 mm. Images were decay corrected to injection time in PMOD (PMOD Technologies, Switzerland) then converted to DICOM for qualitative visualization in Inveon Research Workplace (Siemens Medical Solutions USA, Inc.).
For biodistribution studies, the mice were injected with the radiotracer as described above. At predetermined time points (1 or 3 h for ^68Ga studies; 1, 4, 24, 72, or 120 h for ^177Lu studies), the mice was anesthetized with 2% isoflurane inhalation, and euthanized by CO2 inhalation. Blood was withdrawn immediately from the heart, and the organs/tissues of interest were collected. The collected organs/tissues were weighed and counted using a Perkin Elmer (Waltham, MA) Wizard2 2480 gamma counter. The uptake in each organ/tissue was normalized to the injected dose using a standard curve, and expressed as the percentage of the injected dose per gram of tissue (% ID/g).

O=C([O-])CN1CCN(CC(=O)[O-])CCN(CC(=O)NC[C@H]2CC[C@H](C(=O)N[C@@H](Cc3c4ccccc4cc4ccccc34)C(=O)NCCCC[C@H](NC(=O)N[C@@H](CCC(=O)O)C(=O)O)C(=O)O)CC2)CCN(CC(=O)[O-])CC1.[177Lu+3] [^177Lu-HTK03041]
Tissue (% ID/g): Muscle (24 h post-injection): 0.15 ± 0.03 % ID/g | Tissue (% ID/g): Pancreas (24 h post-injection): 0.26 ± 0.04 % ID/g | Tissue (% ID/g): Salivary (24 h post-injection): 0.40 ± 0.06 % ID/g | Tissue (% ID/g): Seminal (24 h post-injection): 0.23 ± 0.13 % ID/g | Tissue (% ID/g): Spleen (24 h post-injection): 0.59 ± 0.19 % ID/g | Tissue (% ID/g): Stomach (24 h post-injection): 0.18 ± 0.04 % ID/g | Tissue (% ID/g): Tail (24 h post-injection): 0.34 ± 0.17 % ID/g | Tissue (% ID/g): Testes (24 h post-injection): 0.40 ± 0.08 % ID/g | Tissue (% ID/g): Thyroid (24 h post-injection): 0.47 ± 0.09 % ID/g | Tissue (% ID/g): Tumor (24 h post-injection): 19.8 ± 6.13 % ID/g | Tissue (% ID/g): Urine (24 h post-injection): 23.8 ± 8.50 % ID/g | tumor-to-background contrast ratio Tumor: Blood (24 h post-injection): 282 ± 82.6 | tumor-to-background contrast ratio Tumor: Muscle (24 h post-injection): 142 ± 30.1 | tumor-to-background contrast ratio Tumor: kidney (24 h post-injection): 0.97 ± 0.15 | Tissue (% ID/g): Adrenal glands (72 h post-injection): 0.12 ± 0.05 % ID/g | Tissue (% ID/g): Blood (72 h post-injection): 0.02 ± 0.00 % ID/g | Tissue (% ID/g): Bone (72 h post-injection): 0.02 ± 0.01 % ID/g | Tissue (% ID/g): Brain (72 h post-injection): 0.01 ± 0.00 % ID/g | Tissue (% ID/g): Fat (72 h post-injection): 0.03 ± 0.01 % ID/g | Tissue (% ID/g): Heart (72 h post-injection): 0.07 ± 0.02 % ID/g | Tissue (% ID/g): Intestine (72 h post-injection): 0.13 ± 0.04 % ID/g | Tissue (% ID/g): Kidneys (72 h post-injection): 1.27 ± 0.58 % ID/g | Tissue (% ID/g): Lacrimal (72 h post-injection): 0.01 ± 0.01 % ID/g | Tissue (% ID/g): Liver (72 h post-injection): 0.13 ± 0.05 % ID/g | Tissue (% ID/g): Lungs (72 h post-injection): 0.14 ± 0.04 % ID/g | Tissue (% ID/g): Muscle (72 h post-injection): 0.02 ± 0.01 % ID/g | Tissue (% ID/g): Pancreas (72 h post-injection): 0.05 ± 0.02 % ID/g | Tissue (% ID/g): Salivary (72 h post-injection): 0.08 ± 0.03 % ID/g | Tissue (% ID/g): Seminal (72 h post-injection): 0.03 ± 0.01 % ID/g | Tissue (% ID/g): Spleen (72 h post-injection): 0.12 ± 0.04 % ID/g | Tissue (% ID/g): Stomach (72 h post-injection): 0.19 ± 0.09 % ID/g | Tissue (% ID/g): Tail (72 h post-injection): 0.13 ± 0.08 % ID/g | Tissue (% ID/g): Testes (72 h post-injection): 0.08 ± 0.02 % ID/g | Tissue (% ID/g): Thyroid (72 h post-injection): 0.09 ± 0.02 % ID/g | Tissue (% ID/g): Tumor (72 h post-injection): 15.2 ± 4.72 % ID/g | Tissue (% ID/g): Urine (72 h post-injection): 0.67 ± 0.22 % ID/g | tumor-to-background contrast ratio Tumor: Blood (72 h post-injection): 805 ± 164 | tumor-to-background contrast ratio Tumor: Muscle (72 h post-injection): 647 ± 119 | tumor-to-background contrast ratio Tumor: kidney (72 h post-injection): 13.1 ± 3.75 | Tissue (% ID/g): Adrenal glands (120 h post-injection): 0.11 ± 0.11 % ID/g | Tissue (% ID/g): Blood (120 h post-injection): 0.01 ± 0.01 % ID/g | Tissue (% ID/g): Bone (120 h post-injection): 0.02 ± 0.00 % ID/g | Tissue (% ID/g): Brain (120 h post-injection): 0.01 ± 0.00 % ID/g | Tissue (% ID/g): Fat (120 h post-injection): 0.05 ± 0.09 % ID/g | Tissue (% ID/g): Heart (120 h post-injection): 0.06 ± 0.02 % ID/g | Tissue (% ID/g): Intestine (120 h post-injection): 0.06 ± 0.03 % ID/g | Tissue (% ID/g): Kidneys (120 h post-injection): 1.06 ± 0.74 % ID/g | Tissue (% ID/g): Lacrimal (120 h post-injection): 0.01 ± 0.01 % ID/g | Tissue (% ID/g): Liver (120 h post-injection): 0.13 ± 0.04 % ID/g | Tissue (% ID/g): Lungs (120 h post-injection): 0.10 ± 0.04 % ID/g | Tissue (% ID/g): Muscle (120 h post-injection): 0.02 ± 0.02 % ID/g | Tissue (% ID/g): Pancreas (120 h post-injection): 0.04 ± 0.01 % ID/g | Tissue (% ID/g): Salivary (120 h post-injection): 0.06 ± 0.04 % ID/g | Tissue (% ID/g): Seminal (120 h post-injection): 0.02 ± 0.01 % ID/g | Tissue (% ID/g): Spleen (120 h post-injection): 0.22 ± 0.11 % ID/g | Tissue (% ID/g): Stomach (120 h post-injection): 0.05 ± 0.04 % ID/g | Tissue (% ID/g): Tail (120 h post-injection): 0.11 ± 0.07 % ID/g | Tissue (% ID/g): Testes (120 h post-injection): 0.06 ± 0.01 % ID/g | Tissue (% ID/g): Thyroid (120 h post-injection): 0.08 ± 0.03 % ID/g | Tissue (% ID/g): Tumor (120 h post-injection): 22.3 ± 6.90 % ID/g | Tissue (% ID/g): Urine (120 h post-injection): 0.29 ± 0.04 % ID/g | tumor-to-background contrast ratio Tumor: Blood (120 h post-injection): 1670 ± 272 | tumor-to-background contrast ratio Tumor: Muscle (120 h post-injection): 1215 ± 512 | tumor-to-background contrast ratio Tumor: kidney (120 h post-injection): 25.4 ± 9.59 | tumor uptake over the investigated time points (up to 120 h post-injection): remained at the similar level throughout the investigated time points; also recorded: sustained over the course of the study
